The values that follow come from ChEMBL document CHEMBL3400135, “Design, synthesis and biological evaluation of novel homocamptothecin analogues as potent antitumor agents” (Bioorg Med Chem, 2015).

Calls of active or inactive are those of the source. No cut-off for these calls is given here.

Assay [1] can be described thus: Cytotoxicity against human HCT116 cells after 72 hrs by sulforhodamine B assay. The assay is classed as functional, cell-based, HCT-116. As to conditions: Homo sapiens, HCT-116, 72 h. In general terms: In SRB staining, fixed cells bind dye roughly in proportion to their protein.
Assay [2] concerns the target T1, DNA topoisomerase 1 (Homo sapiens) (UniProt P11387).
T1 sequence (whole entry): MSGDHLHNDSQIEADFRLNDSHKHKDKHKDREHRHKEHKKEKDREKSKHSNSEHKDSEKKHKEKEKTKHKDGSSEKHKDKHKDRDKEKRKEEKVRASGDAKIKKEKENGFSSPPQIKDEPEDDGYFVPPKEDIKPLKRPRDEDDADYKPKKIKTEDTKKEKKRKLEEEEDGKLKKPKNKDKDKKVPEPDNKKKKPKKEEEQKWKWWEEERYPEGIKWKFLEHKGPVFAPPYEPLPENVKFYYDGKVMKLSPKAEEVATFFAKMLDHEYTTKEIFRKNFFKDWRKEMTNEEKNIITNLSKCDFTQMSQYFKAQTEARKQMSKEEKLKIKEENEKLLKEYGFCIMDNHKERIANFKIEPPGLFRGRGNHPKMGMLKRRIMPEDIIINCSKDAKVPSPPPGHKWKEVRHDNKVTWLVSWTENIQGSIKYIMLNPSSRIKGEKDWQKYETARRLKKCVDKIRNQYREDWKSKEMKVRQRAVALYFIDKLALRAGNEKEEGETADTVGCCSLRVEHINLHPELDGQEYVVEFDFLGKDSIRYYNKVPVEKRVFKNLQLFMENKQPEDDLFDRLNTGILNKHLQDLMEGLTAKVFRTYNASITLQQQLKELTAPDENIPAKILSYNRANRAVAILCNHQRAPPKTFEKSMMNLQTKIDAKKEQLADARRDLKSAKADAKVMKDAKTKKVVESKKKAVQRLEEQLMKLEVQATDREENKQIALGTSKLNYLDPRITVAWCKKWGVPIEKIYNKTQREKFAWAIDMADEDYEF
The experiment in a line: Inhibition of topoisomerase 1 (unknown origin) at 10 uM using supercoiled pBR322 DNA substrate by ethidium bromide staining based electrophoresis method.

The test system of another assay is HT-29. As to the kind of experiment: Cytotoxicity against human HT-29 cells after 72 hrs by sulforhodamine B assay. As to conditions: Homo sapiens, HT-29, 72 h. The assay is classed as functional, cell-based.
The target of assay [3] is T1, DNA topoisomerase 1 (Homo sapiens). As to the kind of experiment: Inhibition of topoisomerase 1 (unknown origin) at 100 uM using supercoiled pBR322 DNA substrate by ethidium bromide staining based electrophoresis method.
Assay [4] is described as follows: Inhibition of survivin protein expression in human HCT116 cells at 1 nM after 48 hrs by Western blot method. The assay is classed as functional, cell-based. To be noted: HCT-116. On the technique in general: A western blot detects proteins with antibodies after separation by electrophoresis.
Assay [5] in a line: Inhibition of survivin protein expression in human HCT116 cells at 5 nM after 48 hrs by Western blot method. The assay is classed as functional, cell-based. To be noted: HCT-116.

One may read the IC50 as the concentration needed to halve the response being measured.

Take `CC[C@]1(O)c2cc3n(c(=O)c2COC(=O)[C@H]1OC(C)=O)Cc1c-3nc2ccc(OC)cc2c1-c1ccncc1`: the 50% inhibitory concentration (IC50) came out at 7.99 nM in assay [1] and 31 nM with HT-29. Moreover, the inhibition entry in assay [2] and in assay [3] was “Active” in each case.
Consider `CC[C@]1(O)c2cc3n(c(=O)c2COC(=O)[C@H]1OC)Cc1c-3nc2cc3c(cc2c1-c1ccncc1)OCO3`, for which the inhibition entry in assay [4], in assay [3] and in assay [5] was “Active” each time.
For `CC[C@]1(O)c2cc3n(c(=O)c2COC(=O)[C@H]1OC)Cc1c-3nc2ccccc2c1C1CCN(C)CC1`, the half-maximal inhibitory concentration (IC50) came out at 3.23 nM in assay [1] and 17.2 nM in the assay with HT-29. For the same molecule, the inhibition result in assay [2] and in assay [3] was “Active” each time.
For the molecule `CC[C@]1(O)c2cc3n(c(=O)c2COC(=O)[C@H]1OC(C)=O)Cc1c-3nc2ccccc2c1-c1ccncc1`, the IC50 in assay [1] stood at 2.95 nM; with HT-29, 11.4 nM. In assay [3], the inhibition entry is “inactive”.
For the molecule `CC[C@]1(O)c2cc3n(c(=O)c2COC(=O)[C@H]1OC)Cc1cc2cc(O)ccc2nc1-3`, the figures for the IC50 (in assay [1]; in the assay on HT-29) were 4.46 nM and 26.7 nM, respectively. Also, the inhibition entry in assay [2] and in assay [3] was “Active” each time.
As for `CC[C@]1(O)c2cc3n(c(=O)c2COC(=O)[C@H]1OC)Cc1c-3nc2ccccc2c1-c1cn(C)cn1`, the concentration for half-maximal inhibition (IC50) was determined as 1.26 nM in assay [1] and 4.11 nM in the assay with HT-29. The inhibition entry in assay [2] and in assay [3] was “Active” in each case.
`CC[C@]1(O)c2cc3n(c(=O)c2COC(=O)[C@H]1OC)Cc1c-3nc2ccccc2c1-c1ccncc1`: the IC50 in assay [1] was found to be 2.12 nM; with HT-29, 7.18 nM. Further, the inhibition result in assay [2] and in assay [3] was “Active” throughout.
For `CC[C@]1(O)c2cc3n(c(=O)c2COC(=O)[C@H]1OC)Cc1c-3nc2ccc(OC)cc2c1C1CCN(C)CC1`, the 50% inhibitory concentration (IC50) stood at 8.23 nM in assay [1] and 27.1 nM in the assay with HT-29. Besides, the inhibition result in assay [2] and in assay [3] was “Active” throughout.
Turning to `CC[C@]1(O)c2cc3n(c(=O)c2COC(=O)[C@H]1OC)Cc1cc2cc4c(cc2nc1-3)OCO4`, the inhibition entry in assay [4], in assay [2], in assay [3] and in assay [5] was “Active” each time. Moreover, the IC50 in assay [1] stood at 0.2 nM; with HT-29 it was 0.3 nM.
For `CC[C@]1(O)c2cc3n(c(=O)c2COC(=O)[C@H]1OC(C)=O)Cc1c-3nc2ccccc2c1C1CCN(C)CC1`, the IC50 in assay [1] came out at 9.74 nM; in the assay on HT-29 it was 63.8 nM. The inhibition entry in assay [2] and in assay [3] was “Active” each time.
Consider `CC[C@]1(O)c2cc3n(c(=O)c2COC(=O)[C@H]1OC(C)=O)Cc1c-3nc2ccc(OC)cc2c1C1CCN(C)CC1`, for which the concentration for half-maximal inhibition (IC50) in assay [1] came out at 13.2 nM; in the assay on HT-29 it was 54.7 nM. Also, the inhibition entry in assay [2] and in assay [3] was “Active” throughout.
As to `CC[C@]1(O)c2cc3n(c(=O)c2COC(=O)[C@H]1OC)Cc1c-3nc2ccc(OC)cc2c1-c1ccncc1`, the figures for the half-inhibitory concentration (IC50) (in assay [1]; in the assay with HT-29) were 3.33 nM and 6.76 nM, respectively. The inhibition entry in assay [2] and in assay [3] was “Active” each time.
For `CC[C@]1(O)c2cc3n(c(=O)c2COC(=O)[C@H]1OC)Cc1cc2ccccc2nc1-3`, the 50% inhibitory concentration (IC50) in assay [1] is 1.72 nM; with HT-29, 4.79 nM. Also, the inhibition result in assay [2] and in assay [3] was “Active” each time.
In the case of `CC[C@]1(O)c2cc3n(c(=O)c2COC(=O)[C@H]1OC(C)=O)Cc1c-3nc2ccccc2c1-c1cn(C)cn1`, the figures for the half-inhibitory concentration (IC50) (in assay [1]; in the assay with HT-29) were 1.47 nM and 9.11 nM, respectively. Further, the inhibition entry in assay [2] and in assay [3] was “Active” in each case.
